From patent US12121540B2, “CBL inhibitors and compositions for use in adoptive cell therapy” (Nurix Therapeutics, Inc., priority 2019, dated 2024)

Assays:
breast TIL = assay: CDR3 diversity of expanded breast TIL (iRepertoire sequencing); assay type: cell-based, human; conditions: compound 103 alone or with high dose IL-2; 14 days in GREX10
Procedure: TIL were cultured for 14 days in GREX10. […] The raw data were analyzed by iRepertoire using IRmap programs with a modified Smith-Waterman algorithm. Using CDR3 algerbra software, the calculation of shared CDR3s across samples with the indicated treatment was assessed. […] All CDR3 frequencies were scaled to 10 million reads to account for differences in read depth among samples. Data was normalized so that each uCDR3-VDJ combination was treated as a quantity of 1 regardless of read count, and then analyzed for V usage and J usage.

CD4/8+ T cells = assay: Intracellular IFN-γ after PMA/ionomycin stimulation of expanded T cells; assay type: cell-based, human; conditions: IL-2 and Cbl inhibitor expanded T cells; PMA/ionomycin 6 h
Procedure: T cell activity was determined by analysis of cytokine secretion. To investigate whether these expanded T cells are capable of responding to extracellular stimulation, T cells were stimulated with 25 ng/mL phorbol myristate acetate (PMA) and 0.5 μM ionomycin. After 90 min of stimulation, monensin, 1:50, (GolgiStop, BD Biosciences) was added. After 6 h, cells were stained for surface expression of CD4+, CD8+, CD45RA+, CD95+, CCR7+, CD62L+, and subsequently, fixed, permeabilized and stained for intracellular cytokine, IFN-γ.

OT-1 cells = assay: Re-stimulation of harvested splenocytes with OVA Class I peptide; assay type: cell-based, mouse
Procedure: The expanded OT-1 cells were characterized by FACS analysis and transferred into E.G7-OVA mice, which bear ovalbumin (OVA) expressing tumors. Following in vivo transfer of expanded OT-1 cells, antitumor response was monitored over time and the quality and quantity of immune response was assessed at various time points. Analysis included FACS analysis on blood, tumor, and spleen samples. Analysis also included re-stimulation of splenocytes with OVA Class I peptide to evaluate the multifunctionality of the antigen-specific effector T cells.
Expanded OT-1 cells were assessed from splenocytes 11 days after transfer. Harvested splenocytes were re-stimulated with OVA Class I peptide for 72 hours.
Expanded OT-1 cells were assessed from splenocytes 11 days after transfer. Harvested splenocytes were re-stimulated with OVA Class I peptide for 4 hours.
Expanded OT-1 cells were assessed from splenocytes 11 days after transfer. Harvested splenocytes were re-stimulated with OVA Class I peptide for 24 hours.

[1] = system: TIL from human ovarian, colon and breast cancer tissues; assay: Phenotype of TIL expanded in 24 well or GREX10 format (flow cytometry); assay type: cell-based
Procedure: Initial studies involved TIL expansion with ovarian and CRC tumor tissues (average about 0.5-0.8 g). These were fragmented into multiple pieces (approximately 2 mm^3 in size), and one fragment was added per 24 well plate. […] The wells were then pooled by treatment and total cell numbers were assessed by flow cytometry. Following TIL expansion the phenotypes of the cells were characterized. They were majority CD45RO+ and CD4+ and CD8+.
TIL directly derived from fresh ovarian and colon cancer tissues (fresh, n=8) obtained after 28 days' ex vivo culture of cancer tissue fragments were analyzed by flow cytometry. FIG. 24 provides FACS data showing percentages of central memory(CD45RO+CCR7+) and effector memory (CD45RO+CCR7−) phenotype among CD8+CD45RO+, respectively. FACS results expressed as the mean±SEM. Statistical significance calculated using two-tailed Wilcoxon signed-rank test (*, p<0.05). The CD8 T cells were further characterized by assessing T cell differentiation phenotypic markers; CCR7 and CD45RO. […] This indicates the expansion of a less differentiated, persistent T cell.
TIL directly derived from fresh ovarian, colon and breast cancer tissues (fresh, n=7) obtained after 14 days' ex vivo culture of cancer tissue fragments were analyzed by flow cytometry. FIG. 26 provides FACS data showing percentages of central memory […] phenotype among CD8+CD45RO+, respectively. FACS results were expressed as the mean±SEM.

[2] = system: human T cells from peripheral blood mononuclear cells; assay: Flow cytometry immunophenotyping of T cells expanded from donor PBMC; assay type: cell-based; conditions: for CD4 TCM, percentage of total cell number / CD4 TEM, percentage of total cell number / CD4 TSCM, percentage of total cell number / CD8 TCM, percentage of total cell number / CD8 TEM, percentage of total cell number / CD8 TSCM, percentage of total cell number: donor PBMC, day 11
Source text: (§1) At day eleven, cells were pooled and counted, and immunophenotyped at day 11 by flow cytometry by measuring expression of lineage (CD4, CD8) and differentiation (including CD45RA, CD45RO, CD95, CCR7, CD62L, TCF1, PD-1, TIM3, LAG3) markers.
T lymphocytes were defined based on lineage and differentiation marker expression according to the developmental model (Restifo, Blood, 124:476-477, 2014), as shown in Table 4.

[3] = system: human T cells from peripheral blood mononuclear cells; assay: Expansion of CMV pp65 reactive T cells from peripheral blood mononuclear cells; assay type: cell-based; conditions: for Expansion of T cells from PBMC, total cell number relative to IL-2 alone: day 11
Source text: as §1

[4] = Cbl inhibitor expanded, 4 hours restimulation
[5] = 6000 IU IL-2 + 1 uM compound 103, 28 days, 24 well

With `C[C@@H]1CN(Cc2cc3c(c(C(F)(F)F)c2)CN(c2cccc(C4(Cc5nncn5C)COC4)c2)C3=O)CCC1(F)F` [compound 103] the “Unique CDR3s” value (breast TIL) was “Unique CDR3s increased”, the “CD4/8+ T cells capable of producing IFN-γ” value (CD4/8+ T cells) was “greater than 85%” and the “Exhaustion markers (PD1 and TIM3) in multifunctional cells vs IL-2 alone” value (OT-1 cells; [4]) was “lower level of expression of exhaustion markers”. The “Multifunctionality (IFN-gamma and TNF-alpha double positive cells) vs IL-2 alone” value (OT-1 cells; [4]) was “comparable multifunctionality”, the “IL-2 production upon restimulation” value (OT-1 cells; Cbl inhibitor expanded, 24 hours restimulation) was “increased IL-2 production upon restimulation” and the “Proliferation in response to peptide restimulation vs IL-2 alone” value (OT-1 cells; Cbl inhibitor expanded, splenocytes 11 days after transfer, 72 hours) was “superior intrinsic ability to proliferate”. The “Proliferation in response to peptide restimulation” value (OT-1 cells; expanded with Cbl inhibitor and IL-2, 72 hours) was “even greater intrinsic ability to proliferate”, the “% CD4 T cells vs IL-2 alone” value [1, 5] was “decrease in the % of CD4” and the “CD8 T cells vs IL-2 alone” value [1, 5] was “corresponding increase in CD8”. The “Central memory T cells (CCR7+CD45RO+) among CD8 vs IL-2 alone” value ([1]; IL-2 + compound 103, 28 days, FIG. 24) was “significant increase of central memory T cells”, the “CD8 T cell expansion (% and total numbers)” value ([1]; IL-2 + compound 103, GREX 10, 14 days) was “increased expansion of CD8 T cells” and the “Percentage of CD8+ cells vs IL-2 alone” value ([2]; 1 μM Cbl inhibitor alone) was “higher percentages of CD8+ cells”. For the same molecule, the “Percentage of CD8+ cells in culture” value ([2]; IL-2 in combination with 0.1 or 0.5 μM of Cbl inhibitor) was “highest percentage of CD8+ cells”, the “CD4 TCM, percentage of total cell number” value ([2]; 0.1 μM Cbl-i) was 53.1% and the “CD4 TEM, percentage of total cell number” value ([2]; 0.1 μM Cbl-i) was 23.9%. For the same molecule, the “CD4 TSCM, percentage of total cell number” value (from here on “CD4 TSCM, percentage”) ([2]; 0.1 μM Cbl-i) was 12%, the “CD8 TCM, percentage of total cell number” value ([2]; 0.1 μM Cbl-i) was 50.7% and the “CD8 TEM, percentage of total cell number” value ([2]; 0.1 μM Cbl-i) was 14.2%. For the same molecule, the “CD8 TSCM, percentage of total cell number” value (“CD8 TSCM, percentage” for short) ([2]; 0.1 μM Cbl-i) was 17.1%, the “CD4 TCM, percentage of total cell number” value ([2]; 1.0 μM Cbl-i) was 55.3% and the “CD4 TEM, percentage of total cell number” value ([2]; 1.0 μM Cbl-i) was 19.3%. The “CD4 TSCM, percentage” value ([2]; 1.0 μM Cbl-i) was 7.27%, the “CD8 TCM, percentage of total cell number” value ([2]; 1.0 μM Cbl-i) was 61.1% and the “CD8 TEM, percentage of total cell number” value ([2]; 1.0 μM Cbl-i) was 12.9%. The “CD8 TSCM, percentage” value ([2]; 1.0 μM Cbl-i) was 7.29%, the “CD4 TCM, percentage of total cell number” value ([2]; 10 μM Cbl-i) was 47.3% and the “CD4 TEM, percentage of total cell number” value ([2]; 10 μM Cbl-i) was 23.3%. The “CD4 TSCM, percentage” value ([2]; 10 μM Cbl-i) was 1.37%, the “CD8 TCM, percentage of total cell number” value ([2]; 10 μM Cbl-i) was 34.2% and the “CD8 TEM, percentage of total cell number” value ([2]; 10 μM Cbl-i) was 9.23%. The “CD8 TSCM, percentage” value ([2]; 10 μM Cbl-i) was 10.8%, the “CD4 TCM, percentage of total cell number” value ([2]; IL-2 + 0.1 μM Cbl-i) was 13.9% and the “CD4 TEM, percentage of total cell number” value ([2]; IL-2 + 0.1 μM Cbl-i) was 29.7%. The “CD4 TSCM, percentage” value ([2]; IL-2 + 0.1 μM Cbl-i) was 8.53%, the “CD8 TCM, percentage of total cell number” value ([2]; IL-2 + 0.1 μM Cbl-i) was 47.8% and the “CD8 TEM, percentage of total cell number” value ([2]; IL-2 + 0.1 μM Cbl-i) was 18.3%. For the same molecule, the “CD8 TSCM, percentage” value ([2]; IL-2 + 0.1 μM Cbl-i) was 4.2%, the “CD4 TCM, percentage of total cell number” value ([2]; IL-2 + 1.0 μM Cbl-i) was 16.8% and the “CD4 TEM, percentage of total cell number” value ([2]; IL-2 + 1.0 μM Cbl-i) was 28.4%. The “CD4 TSCM, percentage” value ([2]; IL-2 + 1.0 μM Cbl-i) was 1.98%, the “CD8 TCM, percentage of total cell number” value ([2]; IL-2 + 1.0 μM Cbl-i) was 37.8% and the “CD8 TEM, percentage of total cell number” value ([2]; IL-2 + 1.0 μM Cbl-i) was 41.4%. For the same molecule, the “CD8 TSCM, percentage” value ([2]; IL-2 + 1.0 μM Cbl-i) was 0.23%, the “CD4 TCM, percentage of total cell number” value ([2]; IL-2 + 10 μM Cbl-i) was 24.3% and the “CD4 TEM, percentage of total cell number” value ([2]; IL-2 + 10 μM Cbl-i) was 25.8%. The “CD4 TSCM, percentage” value ([2]; IL-2 + 10 μM Cbl-i) was 2.69%, the “CD8 TCM, percentage of total cell number” value ([2]; IL-2 + 10 μM Cbl-i) was 49% and the “CD8 TEM, percentage of total cell number” value ([2]; IL-2 + 10 μM Cbl-i) was 10.6%. For the same molecule, the “CD8 TSCM, percentage” value ([2]; IL-2 + 10 μM Cbl-i) was 9.36%, the “Selective expansion of CD8+ T lymphocytes” value ([2]; donor PBMCs, FIGS. 2A and 2B) was “selectively expand CD8+ T lymphocytes” and the “Expansion of T cells” value ([3]; Cbl inhibitor in the absence of IL-2) was “considerable expansion of T cells”. The “Expansion of T cells from PBMC, total cell number relative to IL-2 alone” value ([3]; Donor 1, 0.1 μM Cbl-i) was 12%, the “Expansion of T cells from PBMC, total cell number relative to IL-2 alone” value ([3]; Donor 1, 1.0 μM Cbl-i) was 12% and the “Expansion of T cells from PBMC, total cell number relative to IL-2 alone” value ([3]; Donor 1, 10 μM Cbl-i) was 44%. The “Expansion of T cells from PBMC, total cell number relative to IL-2 alone” value ([3]; Donor 1, IL-2 + 0.1 μM Cbl-i) was 614%, the “Expansion of T cells from PBMC, total cell number relative to IL-2 alone” value ([3]; Donor 1, IL-2 + 1.0 μM Cbl-i) was 1007% and the “Expansion of T cells from PBMC, total cell number relative to IL-2 alone” value ([3]; Donor 1, IL-2 + 10 μM Cbl-i) was 898%. For the same molecule, the “Expansion of T cells from PBMC, total cell number relative to IL-2 alone” value ([3]; Donor 2, 0.1 μM Cbl-i) was 70%, the “Expansion of T cells from PBMC, total cell number relative to IL-2 alone” value ([3]; Donor 2, 1.0 μM Cbl-i) was 95% and the “Expansion of T cells from PBMC, total cell number relative to IL-2 alone” value ([3]; Donor 2, 10 μM Cbl-i) was 45%. For the same molecule, the “Expansion of T cells from PBMC, total cell number relative to IL-2 alone” value ([3]; Donor 2, IL-2 + 0.1 μM Cbl-i) was 2059%, the “Expansion of T cells from PBMC, total cell number relative to IL-2 alone” value ([3]; Donor 2, IL-2 + 1.0 μM Cbl-i) was 170% and the “Expansion of T cells from PBMC, total cell number relative to IL-2 alone” value ([3]; Donor 2, IL-2 + 10 μM Cbl-i) was 2161%. The “Expansion of T cells from PBMC, total cell number relative to IL-2 alone” value ([3]; Donor 3, 0.1 μM Cbl-i) was 175%, the “Expansion of T cells from PBMC, total cell number relative to IL-2 alone” value ([3]; Donor 3, 1.0 μM Cbl-i) was 75% and the “Expansion of T cells from PBMC, total cell number relative to IL-2 alone” value ([3]; Donor 3, 10 μM Cbl-i) was 38%. The “Expansion of T cells from PBMC, total cell number relative to IL-2 alone” value ([3]; Donor 3, IL-2 + 0.1 μM Cbl-i) was 3622%, the “Expansion of T cells from PBMC, total cell number relative to IL-2 alone” value ([3]; Donor 3, IL-2 + 1.0 μM Cbl-i) was 2145% and the “Expansion of T cells from PBMC, total cell number relative to IL-2 alone” value ([3]; Donor 3, IL-2 + 10 μM Cbl-i) was 1151%.
